We go through two molecules from article PMC5762338, “A novel orally available Syk/Src/Jak2 inhibitor, SKLB-850, showed potent anti-tumor activities in B cell lymphoma (BCL) models” (Oncotarget, 2017).

For one test, the target named is T1, CDK3 (Homo sapiens, UniProt Q00526).
T1 construct: purchased Millipore (Kinase Profiler service)
The test can be described thus: Kinase inhibition, 33P radiometric assay (Millipore Kinase Profiler). In kind it is biochemical. As to the method: (§1) Kinase inhibitory potency of SKLB-850 against a number of selected kinases were measured with gold-standard^33 P radio-labeled technology. […] For the remaining 11 kinases tested, SKLB-850 exibited very weak or no activity (IC50 > 10 μM).
(§2) The IC50 values of SKLB-850 for kinase inhibition in vitro were measured by radiometric assays conducted by Kinase Profiler service provided by Millipore as described in Pan’s study.

The target of a further test is T2, EphB3 (Homo sapiens, UniProt P54753).
T2 construct: purchased Millipore (Kinase Profiler service)
The description is as above. In kind it is biochemical. The method, then: as §1, §2

The target in the next test is T3, GSK3α (Homo sapiens, UniProt P49840).
T3 construct: purchased Millipore (Kinase Profiler service)
The test is described as above. In kind it is biochemical. The method, then:
as §1, §2

In another test the target is T4, MKK4 (Mus musculus, UniProt P47809).
T4 construct: purchased Millipore (Kinase Profiler service)
The description is as above. It counts as biochemical. The method, then: as §1, §2

A further test has as its target T5, PIP4K2α (Homo sapiens, UniProt P48426).
T5 construct: purchased Millipore (Kinase Profiler service)
The test is described as above. In kind it is biochemical. As to the method:
as §1, §2

A further test concerns the target T6, Src (Homo sapiens, UniProt P12931).
T6 construct: purchased Millipore (Kinase Profiler service)
The test is described as above. It counts as biochemical. The method, then:
as §1, §2

For a further test, the target named is T7, Syk (Homo sapiens, UniProt P43405).
T7 construct: purchased Millipore (Kinase Profiler service)
The description is as above. It counts as biochemical. The method, then: as §1, §2

The next test has as its target T8, mTOR (Homo sapiens, UniProt P42345).
T8 construct: purchased Millipore (Kinase Profiler service)
The test is described as above. In kind it is biochemical. The method, then:
as §1, §2

Another test concerns Ramos cells. Kind of test: Chemotaxis assay toward CXCL12 (transwell). It counts as cell-based, Human. The conditions noted are these: CXCL12 200ng/mL, 12 hours. As to the method: And BCL cells could migrate toward the chemokine CXCL12 upon activation of its receptor CD184 [27].
Chemotaxis assay was performed as previously described. Briefly, 1×10^6 Ramos cells were cultured in RPMI 1640 containing 0.5% bovine serum albumin and were pre-incubated for 30 minutes with SKLB-850, R788 or DMSO, and then they were added to the inserts of transwell chambers (5μm poresize; Corning). Inserts were then transferred into wells containing CXCL12 (200ng/mL). After 12 hours, cell count was determined for the upper and lower well in duplicates using a flow cytometer (Novocyte Technologies, China). Chemotaxis indices were calculated as: [number of cells in the lower chamber×100] / [number of cells in the lower and upper chambers]. The chemotaxis index with SKLB-850 was calculated as percentage of the DMSO index.

A further test has as its system Ramos xenograft. Kind of test: Ramos xenograft mouse model. It counts as in vivo, NOD/SCID mice. As to the method:
(§3) The in vivo anti-BCL effects of SKLB-850 were investigated in the Ramos and HBL xenograft mouse models with R788 being taken as a positive control. The animals were treated orally once daily for 21 days (Ramos model) or 36 days (HBL-1 model).
(§4) All animal studies were conducted according to the guidelines of the Animal Care and Use Committee of Sichuan University (Permit Number: 20121205, Chengdu, Sichuan, China). Ramos and HBL-1 tumor cells were established by subcutaneously injecting 1×10^7 cells (100μL) into the hind flank region of 7–8 week old female NOD/SCID mice (ICR, NOD/SCID). When tumors reached a volume of ∼200 mm^3, mice were randomly divided into different groups (6 per group), and SKLB-850 (40 mg/kg, 20mg/kg) or vehicle (5% DMSO, 25% PEG400, and 70% waters) were given once daily by oral gavage. Tumor growth and body weight were measured every three days or every day during the treatment. Tumor volumes were calculated using the formula as follow: tumor volume (mm^3) = 0.5× length (mm) × width (mm) ^2. Studies were typically terminated when tumors in vehicle treated animals reached an average size of 2,000 mm^3. Solid tumors were removed and processed for immunohistochemical analysis and terminal deoxynucleotidyl transferase-mediated dUTP nick end labeling (TUNEL) assay.

A further test concerns HBL-1 xenograft. The test can be described thus: HBL-1 xenograft mouse model. The conditions noted are these: HBL-1 model. It counts as in vivo, NOD/SCID mice. As to the method:
as §3, §4

For test [1], the system named is Syk/ERK, Src/FAK and JAK2/STAT3 signaling pathways in Ramos cell. Kind of test: Western blot of Syk/ERK, Src/FAK and JAK2/STAT3 signaling. In kind it is cell-based, Human. Details: Syk, Src, JAK2 phosphorylation (in words): dose or concentration left out as unconfirmed. The conditions noted are these: 24 hours. As to the method:
(§5) To understand the mechanism of antitumor activities in vivo, pivotal protein activities of Syk/ERK, Src/FAK and JAK2/STAT3 signaling pathways were detected by Western blot analysis. […] Immunohistochemistry assays were performed using tumor tissues isolated from the Ramos tumor model at the end of treatment.
Figure 7 Western blot and histochemical analyses of tumor tissues from the Ramos model (A) SKLB-850 inhibited Syk/ERK, Src/FAK and JAK2/STAT3 signaling pathways. The Ramos cells were incubated for 24 hours in medium containing vehicle, SKLB-850, or R788, and then lysed for western blot assay. (B) H&E staining and immunohistochemical staining of NF-κB, p-Src, p-STAT3 and p-Syk in tumor tissues isolated from vehicle, R788 or SKLB-850 treated groups. SKBL-850 inhibited p-JAK2, p-FAK, p-Src, p-ERK and p-Syk expression in RAMOS cells.
For Ramos cell immunoplot studies, cancer cells were incubated with vehicle, R788, or SKLB-850 for 24 hours, and then lysed in RIPA buffer (Beyotime, China) containing Roche protease inhibitor cocktail, and the protein concentrations were determined by the Bradford method. […]

Test [2] concerns Syk, Src/FAK, JAK2/STAT3 and NF-κB p65 phosphorylation in Ramos tumor tissues. Kind of test: Immunohistochemistry of phospho-proteins in tumor tissues from the Ramos tumor model. It counts as in vivo, NOD/SCID mice. The method, then:
as §5
Paraffin sections from each group were stained with hematoxylineosin (H&E). For immunohistochemistry studies, tumor tissues in the Ramos model were performed and the following antibodies were used: phospho-Src (Cell Signaling Technology, 1:100), phospho-FAK (Cell Signaling Technology, 1:100), phospho-Stat3 (Cell Signaling Technology, 1:100), NF-κB p-65(Cell Signaling Technology, 1:100) and phospho-Syk (Cell Signaling Technology, 1:100). Additionally, Rat anti-mouse CD31 antibody (BD Biosciences, USA) and anti-Ki67 antibody (Gene Tech) were used to determine vessel density and cell proliferation following the manufacturer’s protocol, respectively. A DAKO polymer secondary antibody system (Dako Envision 1K4007) was used for secondary detection. Images were captured using an Olympus digital camera.

[3] abbreviates: positive control, orally once daily.

pIC50: −log10 of the molar value.

T3 sequence (P49840 whole entry): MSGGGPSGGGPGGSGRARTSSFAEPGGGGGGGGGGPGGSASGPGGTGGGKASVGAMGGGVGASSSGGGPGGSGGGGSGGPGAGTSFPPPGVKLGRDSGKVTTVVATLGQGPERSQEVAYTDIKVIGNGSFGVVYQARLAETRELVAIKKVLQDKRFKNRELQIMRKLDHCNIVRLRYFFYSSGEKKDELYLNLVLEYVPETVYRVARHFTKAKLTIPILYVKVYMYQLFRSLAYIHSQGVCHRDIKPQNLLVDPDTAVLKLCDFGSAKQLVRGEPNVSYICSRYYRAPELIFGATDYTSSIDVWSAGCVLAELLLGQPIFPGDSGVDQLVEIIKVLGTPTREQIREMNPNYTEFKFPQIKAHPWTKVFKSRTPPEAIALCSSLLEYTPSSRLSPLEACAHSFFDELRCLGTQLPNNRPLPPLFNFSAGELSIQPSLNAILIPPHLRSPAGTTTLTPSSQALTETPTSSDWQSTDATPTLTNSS
T5 sequence (P48426 whole entry): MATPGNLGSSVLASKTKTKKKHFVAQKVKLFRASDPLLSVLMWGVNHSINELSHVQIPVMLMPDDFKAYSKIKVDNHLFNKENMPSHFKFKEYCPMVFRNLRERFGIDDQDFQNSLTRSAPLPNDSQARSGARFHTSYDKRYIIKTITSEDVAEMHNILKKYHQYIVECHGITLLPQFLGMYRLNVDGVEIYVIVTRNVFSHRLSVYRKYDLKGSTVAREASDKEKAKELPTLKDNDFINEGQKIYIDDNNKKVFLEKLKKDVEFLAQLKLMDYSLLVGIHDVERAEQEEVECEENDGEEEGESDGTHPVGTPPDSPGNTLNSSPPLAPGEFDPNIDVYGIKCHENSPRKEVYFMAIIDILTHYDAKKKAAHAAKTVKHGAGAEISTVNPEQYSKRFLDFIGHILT
T4 sequence (P47809 2-397 limits assumed): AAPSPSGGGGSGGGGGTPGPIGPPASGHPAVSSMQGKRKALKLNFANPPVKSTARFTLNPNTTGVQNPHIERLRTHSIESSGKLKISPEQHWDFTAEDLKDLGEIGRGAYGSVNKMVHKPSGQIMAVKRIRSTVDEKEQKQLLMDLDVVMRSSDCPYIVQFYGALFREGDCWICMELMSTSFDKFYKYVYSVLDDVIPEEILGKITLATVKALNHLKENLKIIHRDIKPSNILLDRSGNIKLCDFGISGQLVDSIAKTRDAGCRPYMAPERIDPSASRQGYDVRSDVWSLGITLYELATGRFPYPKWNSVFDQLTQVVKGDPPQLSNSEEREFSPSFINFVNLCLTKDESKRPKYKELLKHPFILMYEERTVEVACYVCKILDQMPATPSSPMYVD
T6 sequence (P12931 whole entry): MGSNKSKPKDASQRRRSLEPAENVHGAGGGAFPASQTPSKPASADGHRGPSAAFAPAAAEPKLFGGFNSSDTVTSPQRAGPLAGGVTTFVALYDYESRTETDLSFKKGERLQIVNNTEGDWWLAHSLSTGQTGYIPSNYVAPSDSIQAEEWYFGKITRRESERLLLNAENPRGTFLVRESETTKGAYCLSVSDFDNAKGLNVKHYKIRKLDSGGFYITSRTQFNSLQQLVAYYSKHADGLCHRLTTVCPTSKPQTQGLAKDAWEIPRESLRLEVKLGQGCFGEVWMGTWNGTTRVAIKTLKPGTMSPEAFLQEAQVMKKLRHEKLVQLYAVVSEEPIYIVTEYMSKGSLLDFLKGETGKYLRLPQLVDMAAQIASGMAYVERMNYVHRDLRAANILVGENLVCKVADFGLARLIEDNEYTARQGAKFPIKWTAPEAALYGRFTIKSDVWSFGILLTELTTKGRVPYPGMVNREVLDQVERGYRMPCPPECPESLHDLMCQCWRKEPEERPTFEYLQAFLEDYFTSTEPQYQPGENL
T2 sequence (P54753 34-998): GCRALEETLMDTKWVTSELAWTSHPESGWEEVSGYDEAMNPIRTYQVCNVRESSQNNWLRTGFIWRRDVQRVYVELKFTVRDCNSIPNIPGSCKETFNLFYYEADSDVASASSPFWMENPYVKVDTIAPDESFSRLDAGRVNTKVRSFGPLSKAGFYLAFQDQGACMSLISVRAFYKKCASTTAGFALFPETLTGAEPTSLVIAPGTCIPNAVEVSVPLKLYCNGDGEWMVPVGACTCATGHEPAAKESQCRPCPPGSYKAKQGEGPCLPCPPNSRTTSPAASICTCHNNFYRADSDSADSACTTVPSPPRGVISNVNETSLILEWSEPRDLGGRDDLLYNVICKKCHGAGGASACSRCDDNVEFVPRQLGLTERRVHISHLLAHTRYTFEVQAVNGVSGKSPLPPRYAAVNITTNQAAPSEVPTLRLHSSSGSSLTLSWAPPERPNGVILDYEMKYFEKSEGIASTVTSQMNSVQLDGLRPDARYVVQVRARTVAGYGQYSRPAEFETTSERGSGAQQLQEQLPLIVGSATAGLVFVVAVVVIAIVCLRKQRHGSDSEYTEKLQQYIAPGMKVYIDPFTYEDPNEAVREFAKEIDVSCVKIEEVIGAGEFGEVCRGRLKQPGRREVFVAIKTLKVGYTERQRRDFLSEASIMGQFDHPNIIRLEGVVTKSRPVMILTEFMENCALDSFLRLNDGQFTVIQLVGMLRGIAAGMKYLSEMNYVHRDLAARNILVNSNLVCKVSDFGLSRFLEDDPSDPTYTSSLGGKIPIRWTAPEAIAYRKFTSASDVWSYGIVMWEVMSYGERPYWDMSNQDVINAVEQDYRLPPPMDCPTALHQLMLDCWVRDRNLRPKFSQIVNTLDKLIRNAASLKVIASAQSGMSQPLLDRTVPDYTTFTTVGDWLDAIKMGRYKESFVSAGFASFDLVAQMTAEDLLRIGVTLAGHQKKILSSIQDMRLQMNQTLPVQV
T1 sequence (Q00526 whole entry): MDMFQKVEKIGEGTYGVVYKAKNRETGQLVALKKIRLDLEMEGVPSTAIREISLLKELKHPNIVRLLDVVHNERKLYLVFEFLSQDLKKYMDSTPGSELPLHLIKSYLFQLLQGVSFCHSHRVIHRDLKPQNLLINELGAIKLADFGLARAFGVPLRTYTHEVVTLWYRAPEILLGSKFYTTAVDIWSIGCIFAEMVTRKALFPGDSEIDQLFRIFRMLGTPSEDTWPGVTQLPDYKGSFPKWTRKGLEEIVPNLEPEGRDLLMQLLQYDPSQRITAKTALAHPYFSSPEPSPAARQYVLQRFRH
T1 sequence (P24864 whole entry partner): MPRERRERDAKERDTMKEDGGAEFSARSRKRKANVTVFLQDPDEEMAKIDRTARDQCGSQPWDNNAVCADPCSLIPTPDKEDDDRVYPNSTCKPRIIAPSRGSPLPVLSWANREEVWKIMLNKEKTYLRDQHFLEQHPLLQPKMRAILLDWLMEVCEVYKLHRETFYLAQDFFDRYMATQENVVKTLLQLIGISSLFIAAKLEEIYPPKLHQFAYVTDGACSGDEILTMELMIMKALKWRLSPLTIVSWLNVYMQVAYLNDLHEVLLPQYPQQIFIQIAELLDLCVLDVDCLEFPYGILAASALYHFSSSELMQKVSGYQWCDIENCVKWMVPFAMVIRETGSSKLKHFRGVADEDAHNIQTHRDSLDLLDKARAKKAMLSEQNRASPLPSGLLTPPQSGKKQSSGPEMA

The term pIC50 denotes the IC50 on a negative log10 scale, so that one unit is a factor of ten. With `CN1CCN(c2ccc(Nc3ncc(F)c(Nc4ccc(Cl)cc4C(N)=O)n3)cc2)CC1` [SKLB-850, 5-chloro-2-((5-fluoro-2-((4-(4-methylpiperazin-1-yl)phenyl)amino)pyrimidin-4-yl)amino) benzamide], the pIC50 is less than 5.00 at CDK3; less than 5.00 against EphB3; less than 5.00 at GSK3α; less than 5.00 against MKK4; less than 5.00 at PIP4K2α; 7.60 against Src. For the same molecule, the values for the pIC50 at Syk and at mTOR were 7.39 and less than 5.00, respectively. Besides, in the test with Ramos cells, the “Ramos cell chemotaxis toward CXCL12 (in words)” value is on record as “reduced the percentage of Ramos cell chemotaxis toward CXCL12”. In addition, the values for the tumor inhibition rate with Ramos xenograft (20 mg/kg orally once daily for 21 days), in the test on Ramos xenograft (40 mg/kg orally once daily for 21 days) and in the test on HBL-1 xenograft (20 mg/kg orally once daily for 36 days) were 73.65% ± 21.22%, 78.82% ± 9.35% and 80.84% ±4.09%, respectively. Moreover, the “Syk, Src, JAK2 phosphorylation (in words)” value in test [1] is “effectively inhibited”. For the same molecule, in test [1] (concentrations between 0.01μMl and 1μM/ml), the “phosphorylation levels of ERK, FAK and Stat3 (in words)” value is reported as “down-regulated”. In addition, in test [2] (tumor tissues from the Ramos tumor model), the “phosphorylation of NF-κB p65 (in words)” value was “inhibited”. In addition, the “phosphorylations of Syk, Src/FAK and JAK2/STAT3 (in words)” value in test [2] (tumor tissues from the Ramos tumor model at the end of treatment) is “inhibited”.
Take `COc1cc(Nc2ncc(F)c(Nc3ccc4c(n3)N(COP(=O)(O)O)C(=O)C(C)(C)O4)n2)cc(OC)c1OC` [R788, reference compound]: the “anti-tumor effect (in words)” value in the test with Ramos xenograft (setting [3]) and in the test with HBL-1 xenograft (setting [3]) was “some anti-tumor effect” each time.
